# Measurements reported in patent US8691838B2, “Heterocycles as protein kinase inhibitors” (Amgen Inc., priority 2008, dated 2014).
# pKi: −log10 of the molar value.
# Molecular target: c-Met (Homo sapiens, UniProt P08581)
# Experiment: c-Met receptor assay (HTRF kinase assay with GST-cMet (P) enzyme, gastrin substrate)
# Procedure: A Kinase reaction Buffer was prepared as follows: 60 mM HEPES pH 7.4; 50 mM NaCl; 20 mM MgCl2; 5 mM MnCl2. When the assay was carried out, the following ingredients were freshly added: 2 mM DTT; 0.05% BSA; 0.1 mM Na3OV4.
# Then incubated the plate at RT for 30 min.
# KM ATP and KM gastrin for various enzymes were determined by HTRF/^33P labeling and HTRF methods.
# Sequence of c-Met (P08581 1058-1365): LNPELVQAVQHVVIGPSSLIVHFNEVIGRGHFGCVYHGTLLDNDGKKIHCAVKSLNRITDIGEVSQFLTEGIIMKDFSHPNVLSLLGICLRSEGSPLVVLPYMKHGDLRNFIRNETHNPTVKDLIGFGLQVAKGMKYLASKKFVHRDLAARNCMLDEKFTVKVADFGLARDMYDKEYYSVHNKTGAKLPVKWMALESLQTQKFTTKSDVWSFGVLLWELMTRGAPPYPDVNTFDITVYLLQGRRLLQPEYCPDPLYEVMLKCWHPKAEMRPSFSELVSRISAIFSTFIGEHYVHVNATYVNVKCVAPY
row,Structure (SMILES),pKi
1,"CC(c1ccc2ncccc2c1)n1nnc2c(=O)[nH]ccc21 (racemic) [Example 10, (R/S)-1-(1-(quinolin-6-yl)ethyl)-1H-[1,2,3]triazolo[4,5-c]pyridin-4(5H)-one]",6.34
2,"O=C1c2c(nnn2Cc2ccc3ncccc3c2)CCN1c1ccccc1 [Example 1, 5-phenyl-3-(quinolin-6-ylmethyl)-6,7-dihydro-3H-[1,2,3]triazolo[4,5-c]pyridin-4(5H)-one]",6.44
3,"Cc1cc(N2CCc3nnn(Cc4ccc5ncccc5c4)c3C2=O)sn1 [Example 2, 5-(3-methylisothiazol-5-yl)-3-(quinolin-6-ylmethyl)-6,7-dihydro-3H-[1,2,3]triazolo[4,5-c]pyridin-4(5H)-one]",7.92
4,"Cc1cc(N2CCc3nnn([C@@H](C)c4ccc5ncccc5c4)c3C2=O)sn1 [Example 4, (S)-5-(3-methylisothiazol-5-yl)-3-(1-(quinolin-6-yl)ethyl)-6,7-dihydro-3H-[1,2,3]triazolo[4,5-c]pyridin-4(5H)-one]",8.10
5,"Cc1cc(N2CCc3nnn([C@H](C)c4ccc5ncccc5c4)c3C2=O)sn1 [Example 5, (R)-5-(3-methylisothiazol-5-yl)-3-(1-(quinolin-6-yl)ethyl)-6,7-dihydro-3H-[1,2,3]triazolo[4,5-c]pyridin-4(5H)-one]",6.88
6,"C[C@@H](c1ccc2ncccc2c1)n1nnc2ccn(-c3ccc(Cl)c(C(F)(F)F)c3)c(=O)c21 [Example 29, (S)-5-(4-chloro-3-(trifluoromethyl)phenyl)-3-(1-(quinolin-6-yl)ethyl)-3H-[1,2,3]triazolo[4,5-c]pyridin-4(5H)-one]",8.47
7,"C[C@H](c1ccc2ncccc2c1)n1nnc2ccn(-c3ccc(Cl)c(C(F)(F)F)c3)c(=O)c21 [Example 30, (R)-5-(4-chloro-3-(trifluoromethyl)phenyl)-3-(1-(quinolin-6-yl)ethyl)-3H-[1,2,3]triazolo[4,5-c]pyridin-4(5H)-one]",6.33
8,"C[C@@H](c1ccc2ncccc2c1)n1nnc2ccn(Cc3ccccc3)c(=O)c21 [Example 31, (S)-5-benzyl-3-(1-(quinolin-6-yl)ethyl)-3H-[1,2,3]triazolo[4,5-c]pyridin-4(5H)-one]",5.96
9,"C[C@H](c1ccc2ncccc2c1)n1nnc2ccn(Cc3ccccc3)c(=O)c21 [Example 32, (R)-5-benzyl-3-(1-(quinolin-6-yl)ethyl)-3H-[1,2,3]triazolo[4,5-c]pyridin-4(5H)-one]",5.88
